PubChem BioAssay AID248 (DTP/NCI, 2004)
“And” between values parts separate entries of the source, which are not always exact repeats. Equal entries are not always repeated. Toxic doses and inconclusive results are not listed. Rule as the data show it: active = T/C of 150% or more; inactive = T/C below 125%.

Test system: L1210 leukemia ip in BDF1 mice, survival T/C
Experiment: NCI In Vivo Anticancer Drug Screen. Data for tumor model L1210 Leukemia (intraperitoneal) in B6D2F1 (BDF1) mice
Conditions: endpoint: mean survival time, higher = longer survival
How it was run: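 Mice bearing the transplanted tumor received compound or vehicle. Survival of the treated group was divided by that of the vehicle-treated control group to give the ratio.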

[1] = dose: 25.0 mg/kg/injection, schedule: Q04DX003 (ip), vehicle: saline with Tween-80
[2] = dose: 50.0 mg/kg/injection, schedule: Q04DX003 (ip), vehicle: saline with Tween-80
[3] = dose: 100.0 mg/kg/injection, schedule: Q01DX001 (ip), vehicle: saline
[4] = dose: 200.0 mg/kg/injection, schedule: Q01DX001 (ip), vehicle: saline
[5] = dose: 400.0 mg/kg/injection, schedule: Q01DX001 (ip), vehicle: saline
[6] = dose: 100.0 mg/kg/injection, schedule: Q01DX009 (ip), vehicle: saline
[7] = dose: 200.0 mg/kg/injection, schedule: Q01DX009 (ip), vehicle: saline
[8] = dose: 400.0 mg/kg/injection, schedule: Q01DX009 (ip), vehicle: saline
[9] = dose: 100.0 mg/kg/injection, schedule: Q01DX009 (ip), vehicle: saline with Tween-80
[10] = dose: 200.0 mg/kg/injection, schedule: Q01DX009 (ip), vehicle: saline with Tween-80
[11] = dose: 400.0 mg/kg/injection, schedule: Q01DX009 (ip), vehicle: saline with Tween-80
[12] = dose: 25.0 mg/kg/injection, schedule: Q01DX009 (ip), vehicle: saline
[13] = dose: 50.0 mg/kg/injection, schedule: Q01DX009 (ip), vehicle: saline
[14] = dose: 100.0 mg/kg/injection, schedule: Q04DX003 (ip), vehicle: saline
[15] = dose: 200.0 mg/kg/injection, schedule: Q04DX003 (ip), vehicle: saline
[16] = dose: 400.0 mg/kg/injection, schedule: Q04DX003 (ip), vehicle: saline
[17] = dose: 100.0 mg/kg/injection, schedule: Q01DX009 (ip), vehicle: Klucel (hydroxypropylcellulose) (HPC)
[18] = dose: 200.0 mg/kg/injection, schedule: Q01DX009 (ip), vehicle: Klucel (hydroxypropylcellulose) (HPC)
[19] = dose: 100.0 mg/kg/injection, schedule: Q04DX002 (ip), vehicle: Klucel (hydroxypropylcellulose) (HPC)
[20] = dose: 200.0 mg/kg/injection, schedule: Q04DX002 (ip), vehicle: Klucel (hydroxypropylcellulose) (HPC)
[21] = dose: 100.0 mg/kg/injection, schedule: Q01DX001 (ip), vehicle: carboxymethylcellulose (CMC)
[22] = dose: 200.0 mg/kg/injection, schedule: Q01DX001 (ip), vehicle: carboxymethylcellulose (CMC)
[23] = dose: 400.0 mg/kg/injection, schedule: Q01DX001 (ip), vehicle: carboxymethylcellulose (CMC)
[24] = dose: 100.0 mg/kg/injection, schedule: Q04DX003 (ip), vehicle: saline with Tween-80
[25] = dose: 200.0 mg/kg/injection, schedule: Q04DX003 (ip), vehicle: saline with Tween-80

Measured: T/C

CCOc1ccc2cc(Br)ccc2c1
inactive: dose: 50.0 mg/kg/injection, schedule: Q01DX001 (ip), vehicle: Klucel (hydroxypropylcellulose) (HPC) 101 % of control | dose: 100.0 mg/kg/injection, schedule: Q01DX001 (ip), vehicle: Klucel (hydroxypropylcellulose) (HPC) 106 % of control | dose: 200.0 mg/kg/injection, schedule: Q01DX001 (ip), vehicle: Klucel (hydroxypropylcellulose) (HPC) 97 % of control

NC(N)=NC(N)=Nc1ccc2c(Cl)c(Cl)ccc2c1
inactive: dose: 2.5 mg/kg/injection, schedule: Q01DX009 (ip), vehicle: saline sonified 92 % of control | dose: 5.0 mg/kg/injection, schedule: Q01DX009 (ip), vehicle: saline sonified 101 % of control | dose: 10.0 mg/kg/injection, schedule: Q01DX009 (ip), vehicle: saline sonified 101 % of control | dose: 12.5 mg/kg/injection, schedule: Q04DX003 (ip), vehicle: saline with Tween-80 105 % of control | [1] 114 % of control | [2] 100 % of control | dose: 100.0 mg/kg/injection, schedule: Q04DX003 (ip), vehicle: saline sonified 101 % of control

Cc1cc(/C=C2\C=Cc3ccccc32)ccc1N(C)C
inactive: [3] 94 % of control | [4] 93 % of control | [5] 98 % of control

NC(=O)CCSCCC(N)=O
inactive: [6] 114 % of control | [7] 118 % of control | [8] 111 % of control

O=C1CCC(C(=O)NC(Cc2cncn2Cc2ccccc2)C(=O)NC(COCc2ccccc2)Cc2c[nH]c3ccccc23)N1 (stereo not given)
inactive: [9] 96 % of control | [10] 104 % of control | [11] 94 % of control

c1ccc(-c2cc3c(-c4ccccc4)c4ccccc4c(-c4ccccc4)c3cc2-c2ccccc2)cc1
inactive: dose: 50.0 mg/kg/injection, schedule: Q01DX009 (ip), vehicle: saline with Tween-80 96 % of control | [9] 96 % of control | [10] 108 % of control

COc1cc(C(=O)OC(C)CN2CCN(C(=O)c3cc(OC)c(OC)c(OC)c3)CC2)cc(OC)c1OC (stereo not given)
inactive: [12] 108 % of control | dose: 25.0 mg/kg/injection, schedule: Q04DX003 (ip), vehicle: saline 98 % of control | [13] 101 % of control | dose: 50.0 mg/kg/injection, schedule: Q04DX003 (ip), vehicle: saline 95 % of control | [6] 104 % of control | [14] 102 % of control | [7] 98 % of control | [15] 102 % of control | [16] 109 % of control

C/C(=C(/CCO)SCCC(=O)c1ccc(Cl)cc1)N(C=O)Cc1cnc(C)nc1N
inactive: [14] 97 % of control | [15] 93 % of control | [16] 97 % of control

CCOC1(CC)CN(Cc2ccccc2)CCO1 (stereo not given)
inactive: [17] 103 % of control | [18] 93 % of control | dose: 400.0 mg/kg/injection, schedule: Q01DX009 (ip), vehicle: Klucel (hydroxypropylcellulose) (HPC) 98 % of control

CN1CCC(OC(=O)C2CC(=O)NC(=O)C2)CC1
inactive: dose: 100.0 mg/kg/injection, schedule: Q04DX003 (ip), vehicle: Klucel (hydroxypropylcellulose) (HPC) 107 % of control | dose: 200.0 mg/kg/injection, schedule: Q04DX003 (ip), vehicle: Klucel (hydroxypropylcellulose) (HPC) 102 % of control | dose: 400.0 mg/kg/injection, schedule: Q04DX003 (ip), vehicle: Klucel (hydroxypropylcellulose) (HPC) 94 % of control

CCOC(=O)CC(=O)O
inactive: [3] 91 % of control | [4] 97 % of control | [5] 91 % of control

COC1OC2COCOC2C2OCOC12 (stereo not given)
inactive: dose: 50.0 mg/kg/injection, schedule: Q04DX002 (ip), vehicle: Klucel (hydroxypropylcellulose) (HPC) 95 % of control | [19] 98 % of control | [20] 98 % of control

OC1CCN2CCCc3cccc1c32 (stereo not given)
inactive: dose: 12.5 mg/kg/injection, schedule: Q01DX009 (ip), vehicle: DMSO 93 % of control | dose: 12.5 mg/kg/injection, schedule: Q04DX003 (ip), vehicle: DMSO 94 % of control | dose: 25.0 mg/kg/injection, schedule: Q01DX009 (ip), vehicle: DMSO 94 % of control | dose: 25.0 mg/kg/injection, schedule: Q04DX003 (ip), vehicle: DMSO 95 % of control | dose: 50.0 mg/kg/injection, schedule: Q01DX009 (ip), vehicle: DMSO 90 % of control | dose: 50.0 mg/kg/injection, schedule: Q04DX003 (ip), vehicle: DMSO 105 % of control

CCCCNC(=S)NNC(=O)c1ccncc1
inactive: [19] 107 % of control | [20] 95 % of control and 105 % of control | dose: 400.0 mg/kg/injection, schedule: Q04DX002 (ip), vehicle: Klucel (hydroxypropylcellulose) (HPC) 96 % of control and 98 % of control

CCOc1ccccc1NC(=O)Nc1cccc(F)c1
inactive: [9] 104 % of control | [10] 96 % of control | [11] 93 % of control

N=c1c2[nH]cnc2ncn1O
inactive: [21] 89 % of control | [22] 94 % of control | [23] 100 % of control

c1ccc2c(c1)CNNC2
inactive: [12] 97 % of control | [13] 96 % of control | [6] 102 % of control | [7] 103 % of control | [8] 105 % of control

C/C(=N/NC(N)=O)C1CC2CCC1CC2 (stereo not given)
inactive: dose: 50.0 mg/kg/injection, schedule: Q01DX009 (ip), vehicle: Klucel (hydroxypropylcellulose) (HPC) 102 % of control | [17] 93 % of control | [18] 89 % of control

O=C1c2ccccc2C(=O)N1OCc1cc(Cl)sc1Cl
inactive: [24] 97 % of control | [25] 96 % of control | dose: 400.0 mg/kg/injection, schedule: Q04DX003 (ip), vehicle: saline with Tween-80 104 % of control

CCCCCCCCCCCCC(CCCCCCCCCCCC)C1CCCCC1
inactive: [3] 102 % of control | [4] 104 % of control | [5] 95 % of control

O=S1(=O)CCCCc2c1ccc1ccccc21
inactive: [3] 101 % of control | [4] 90 % of control | [5] 106 % of control

CCOC(=O)C(OCc1ccccc1)(C(=O)O)C(C)C (stereo not given)
inactive: [1] 93 % of control | [2] 97 % of control | [24] 98 % of control | [25] 103 % of control

CCN=C(Nc1cccc(C2=NCCN2)c1)c1ccc(C(=NCC)Nc2cccc(C3=NCCN3)c2)cc1
inactive: dose: 2.0 mg/kg/injection, schedule: Q01DX Z (ip), vehicle: carboxymethylcellulose (CMC) 109 % of control | dose: 4.0 mg/kg/injection, schedule: Q01DX Z (ip), vehicle: carboxymethylcellulose (CMC) 95 % of control | dose: 8.0 mg/kg/injection, schedule: Q01DX Z (ip), vehicle: carboxymethylcellulose (CMC) 103 % of control | dose: 16.0 mg/kg/injection, schedule: Q01DX Z (ip), vehicle: carboxymethylcellulose (CMC) 107 % of control

C[Si](C)(CCl)O[Si](C)(C)CCl
inactive: dose: 50.0 mg/kg/injection, schedule: Q01DX001 (ip), vehicle: carboxymethylcellulose (CMC) 113 % of control | [21] 97 % of control | [22] 106 % of control | [23] 97 % of control
